Source: PubChem BioAssay AID1963867 (Molecular Pharmacology Branch, DTP, NCI, 2024)

Test system: KRAS-mutant PDC tumor spheroid with HUVEC/MSC, viability
Assay: Anticancer human tumor 327498-153-R-J2-PDC patient-derived uterine carcinosarcoma cell line growth inhibition [KRAS2]
Details: for IC50: curve of first compound; for viability, T/C: stronger effect = lower value
Summary of the method: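 KRAS-mutant tumor cells were grown as spheroids with HUVEC endothelial cells and human MSCs as stroma. Targeted agents were tested alone and with KRAS pathway inhibitors. Doses started at or near clinical Cmax, or 10 microM, descending half-log.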

[1] = second compound 0.1 µM, first compound 0.0316 µM
[2] = second compound 0.1 µM, first compound 0.1 µM
[3] = second compound 0.1 µM, first compound 0.316 µM
[4] = second compound 0.1 µM, first compound 1 µM
[5] = second compound 0.1 µM, first compound 3.16 µM
[6] = second compound 0.1 µM, first compound 10 µM
[7] = second compound 0.316 µM, first compound 0.0316 µM
[8] = second compound 0.316 µM, first compound 0.1 µM
[9] = second compound 0.316 µM, first compound 0.316 µM
[10] = second compound 0.316 µM, first compound 1 µM
[11] = second compound 0.316 µM, first compound 3.16 µM
[12] = second compound 0.316 µM, first compound 10 µM
[13] = second compound 1 µM, first compound 0.0316 µM
[14] = second compound 1 µM, first compound 0.1 µM
[15] = second compound 1 µM, first compound 0.316 µM
[16] = second compound 1 µM, first compound 1 µM
[17] = second compound 1 µM, first compound 3.16 µM
[18] = second compound 1 µM, first compound 10 µM
[19] = second compound 3.16 µM, first compound 0.0316 µM
[20] = second compound 3.16 µM, first compound 0.1 µM
[21] = second compound 3.16 µM, first compound 0.316 µM
[22] = second compound 3.16 µM, first compound 1 µM
[23] = second compound 3.16 µM, first compound 3.16 µM
[24] = second compound 3.16 µM, first compound 10 µM
[25] = second compound 10 µM, first compound 0.0316 µM
[26] = second compound 10 µM, first compound 0.1 µM
[27] = second compound 10 µM, first compound 0.316 µM
[28] = second compound 10 µM, first compound 1 µM
[29] = second compound 10 µM, first compound 3.16 µM
[30] = second compound 10 µM, first compound 10 µM
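Further: spheroids exposed to agents for seven days before reading.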
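Wherever viability, T/C is given: 100% = DMSO vehicle wells so lower means fewer viable cells.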

| SMILES | IC50 (second compound 0.1 µM) | IC50 (second compound 0.316 µM) | IC50 (second compound 1 µM) | IC50 (second compound 3.16 µM) | IC50 (second compound 10 µM) | viability, T/C [1] | viability, T/C [2] | viability, T/C [3] | viability, T/C [4] | viability, T/C [5] | viability, T/C [7] | viability, T/C [8] | viability, T/C [9] | viability, T/C [10] | viability, T/C [11] | viability, T/C [13] | viability, T/C [14] | viability, T/C [15] | viability, T/C [16] | viability, T/C [17] | also measured |
| --- | --- | --- | --- | --- | --- | --- | --- | --- | --- | --- | --- | --- | --- | --- | --- | --- | --- | --- | --- | --- | --- |
| COc1cc(Nc2ncc3c(n2)-c2ccc(Cl)cc2C(c2c(F)cccc2OC)=NC3)ccc1C(=O)O + C=CC(=O)N1CCN(c2nc(=O)n(-c3c(C)ccnc3C(C)C)c3nc(-c4c(O)cccc4F)c(F)cc23)C(C)C1 | < 31.6 nM | < 31.6 nM | < 31.6 nM | < 31.6 nM | < 31.6 nM | 12.1% | 9.76% | 10.6% | 12.4% | 12.6% | 10.1% | 11.5% | 11.1% | 9.91% | 13.6% | 10.6% | 12% | 10.6% | 10.7% | 12.5% | viability, T/C [6]: 9.6%; viability, T/C [12]: 10.8%; viability, T/C [18]: 11.3%; viability, T/C [19]: 9.6%; viability, T/C [20]: 11.2%; viability, T/C [21]: 10.2%; viability, T/C [22]: 11.9%; viability, T/C [23]: 12.6%; viability, T/C [24]: 10.9%; viability, T/C [25]: 9.5%; viability, T/C [26]: 13.1%; viability, T/C [27]: 12.6%; viability, T/C [28]: 12.4%; viability, T/C [29]: 15.2%; viability, T/C [30]: 11.9% |
| CC1OCC2(CCN(c3cnc(Sc4ccnc(N)c4Cl)c(N)n3)CC2)C1N (stereo not given) + COc1cc2nc(C)nc(NC(C)c3cc(N)cc(C(F)(F)F)c3)c2cc1OC1CCOC1 | 129 nM | 85.5 nM | 99.3 nM | 64.8 nM | < 31.6 nM | 72.8% | 46.9% | 44.7% | 34.4% | 29.3% | 61.6% | 47.5% | 39.8% | 32.3% | 29.6% | 61.6% | 50.2% | 39.6% | 32.8% | 27.8% | viability, T/C [6]: 23.6%; viability, T/C [12]: 27.8%; viability, T/C [18]: 22.7%; viability, T/C [19]: 58%; viability, T/C [20]: 43.3%; viability, T/C [21]: 39.6%; viability, T/C [22]: 28.7%; viability, T/C [23]: 23.5%; viability, T/C [24]: 23.7%; viability, T/C [25]: 49.5%; viability, T/C [26]: 37.5%; viability, T/C [27]: 31.2%; viability, T/C [28]: 25.2%; viability, T/C [29]: 25.3%; viability, T/C [30]: 16.2% |
| CC1COCCN1c1cc(-c2ccnn2C)c2ccnc(-c3ccn[nH]3)c2n1 (stereo not given) + COc1cc2nc(C)nc(NC(C)c3cc(N)cc(C(F)(F)F)c3)c2cc1OC1CCOC1 | 13 nM | 20.7 nM | 15.4 nM | 13.2 nM | < 10 nM | 3.7% | 2.44% | 3.52% | 4.74% | 4.39% | 31.4% | 9.52% | 6.32% | 5.51% | 5.8% | 30.1% | 10.6% | 5.67% | 7.04% | 4.67% | viability, T/C (second compound 0.1 µM, first compound 0.01 µM): 63.9%; viability, T/C (second compound 0.316 µM, first compound 0.01 µM): 81.8%; viability, T/C (second compound 1 µM, first compound 0.01 µM): 62.1%; viability, T/C (second compound 3.16 µM, first compound 0.01 µM): 57.9%; viability, T/C [19]: 25.2%; viability, T/C [20]: 6.64%; viability, T/C [21]: 3.75%; viability, T/C [22]: 3.28%; viability, T/C [23]: 3.79%; viability, T/C (second compound 10 µM, first compound 0.01 µM): 46.3%; viability, T/C [25]: 15.9%; viability, T/C [26]: 1.79%; viability, T/C [27]: 2.06%; viability, T/C [28]: 1.48%; viability, T/C [29]: 0.91% |
